Assays:
[1] = tested on: mice; experiment: Forced swimming test in mouse model, compound C-11 versus fluoxetine, Example 40; assay type: in vivo; details: FIG. 1
Experimental: The mice were placed in a cylindrical jar 24 hours before administration to accommodate the underwater environment for 15 min. On the day of the behavioral test, animals were administered twice and administered orally 4 h and 1 h before the behavioral test. The mice were individually placed in a cylindrical glass jar, timed for 6 minutes, and the number of arm lift was recorded within the last 2 minutes. The mice were then placed in a cylindrical glass jar having 30 cm high and 20 cm in diameter. […] Water temperature was 23° C.-25° C. After the mice entered into the water, a 6-minute video was taken. […] Each group of mice was operated in parallel.

[2] = tested on: C57 mice susceptible to social defeat by CD-1 aggressive mice; experiment: Social defeated stress (SDS) model, Example 42; assay type: in vivo; details: 10 mg/kg gavage every day
Experimental: Male CD-1 aged 4-6 months mice which had passed childbearing age were raised separately, allowed to eat freely and adapt to the environment for about one week. Male C57 mice (aged 8-20 weeks differently) were used to screen for aggressive CD-1 mice. The mice screened by C57 were placed directly in the cage of CD-1 for 3 minutes, and the latency period for CD-1 to start showing offensive was recorded, and then the mice screened by C57 were moved out. For each CD-1 mouse, the same C57 was used to screen it three times a day, and different C57-selected mice were selected every day for a total of three days of screening. […] After screening for CD-1 aggressive mice for modeling, each C57 test mouse was exposed to different CD-1 aggressive mice for 10 consecutive days, 10 minutes each day. […] After 10 minutes of contact, the test mice were isolated from the invaders. Test mice and aggressive mice were placed in adjacent sections of the same squirrel cage, separated by a porous transparent plastic baffle, allowing test mice to be exposed under a threatening chronic stress stimulation for the next 24 hours. The control mice were placed in cages having the same structure, but the other side of the baffle was placed with other mice of the same line that were replaced daily. After 24 hours after the end of the last day of the experiment, we evaluated CSDS-induced social behavioral changes and selected all susceptible mice based on previous reports. The social interaction ratio (SI ratio) was calculated according to the following formula: SI ratio=time for the mouse in the interaction area when the aggressor exists/time for the mouse in the interaction area when the aggressor is absent. […] All selected test mice and control mice were then housed individually for 3 weeks. […] The mice in the vehicle group were administered by gavage with 0.5% CMC-Na every day. The SI ratio was assessed once a week.
Two-way ANOVA was used to analyze and LSD method was used for the multiple comparisons of calibration results. The data were expressed in Mean sem. […]

[3] = tested on: ICR mice; experiment: Toxicity observed during antidepressant efficacy screening (FST and TST animal batch); assay type: in vivo; details: same animal batch as efficacy screening, gavage 10 mg/Kg
Description: (§1) Male ICR mice (body weight, 20±2 g) used in the experiment were purchased from the Experimental Animal Center of Shanghai Institute of Materia Medica, Chinese Academy of Sciences. They were free access to water and kept at room temperature (23 2) ° C. in natural light. All mice were randomly divided into a blank control group and a test group, with 10 mice in each group and 5 mice/cage. The experiment was started after 3 days of adaptation in the breeding environment. The mice were fasted for 12 hours before the experiment but free access to water. The specific administration method was gavage administration, and the administration dose of the administration group was 10 mg/Kg, and the blank control group was given an equal volume of 0.5% CMC-Na.
as §1, with “The specific administration method was gavage administration, and the administration dose of the administration group was 10 mg/Kg, and the blank control group was given an equal volume of 0.5% CMC-Na.” left out

[4] = tested on: mice; experiment: Tail suspension test in mouse model, compound C-11 versus fluoxetine, Example 40; assay type: in vivo; details: FIG. 2
Experimental: On the day of the behavioral test, animals were dosed twice and administered orally 4 h and 1 h before the behavioral test. During the experiment, the tail of the mouse was hung on a tail suspension test stand about 15 cm away from the ground with a tape or a clip at about 1 cm away from the tail end. The mice struggled to overcome the abnormal posture, but appeared intermittent immobility after a period of activity showing disappointment state. The experimental time for each group was 6 minutes. Since most of the mice struggled actively for the first two minutes, the immobility time within the last four minutes was recorded.

[5] = tested on: ICR mice; experiment: Tail suspension test (TST), Example 39; assay type: in vivo; details: gavage 10 mg/Kg for 6 days, t-test
Description: Tail Suspension Test (TST) to Investigate the Antidepressant Activity of Some Compounds and Some Natural Products of the Present Invention
as §1, with “dose” for “dose of the administration group”
Specific procedures: The mice were continuously administered for 6 days, and tested 1 hour after the last administration. Firstly, the spontaneous activity of the mice was measured by the open field method, that is, the mice were individually placed in a cylindrical glass jar for 4 minutes, and the number of lifting arms within the last 2 minutes was recorded. Then the tail of the mice was stick onto the horizontal bar by the tape at 2 cm from the tip of the tail, and the animal eyesight was separated by the surrounding plates. The horizontal bar was about 25 cm from the ground, so that the mouse was about 10 cm from the ground, and the timing was 6 min. The cumulative immobility time within the last 4 minutes was recorded. Each group of mice was operated in parallel.
(§2) Experimental data processing: The experimental results were expressed as mean standard error (x SD). Statistical analysis was performed using t-test to determine whether it was significant. […] Then, the t-test was performed on the experimental index of tail suspension test to determine whether it had antidepressant effect.

[6] = tested on: rats; experiment: Forced swimming test in rat model, compound C-11 versus fluoxetine, Example 41; assay type: in vivo
Experimental: The rats were placed in a cylindrical jar 24 hours before administration to accommodate the underwater environment for 15 min. On the day of the behavioral test, animals were administered twice and administered orally 4 h and 1 h before the behavioral test. The rats were individually placed in a cylindrical glass jar, timed for 6 minutes, and the number of arm lift was recorded within the last 2 minutes. The rats were then placed in a cylindrical glass jar having 30 cm high and 20 cm in diameter. […] Water temperature was 23° C.-25° C.

[7] = tested on: ICR mice; experiment: Forced swimming test (FST), Example 38; assay type: in vivo; details: gavage 10 mg/Kg for 6 days, t-test
Description: Forced swimming test (FST) to investigate the antidepressant activity of some compounds and some natural products of the present invention
as §1
Specific procedures: The mice were continuously administered for 6 days, and tested 1 hour after the last administration. Firstly, the spontaneous activity of the mice was measured by the open field method, that is, the mice were individually placed in a cylindrical glass jar for 4 minutes, and the number of lifting arms within the last two minutes was recorded. The mice were then individually placed in a cylindrical glass jar (20 cm high and 14 cm in diameter) with a water depth of 10 cm and a water temperature of 23° C. to 25° C. After mice entered into water, a 6-minute timing was conducted, the cumulative immobility time (the criteria for determining immobility: the mice stopped struggling in the water, or floated with only small limb movements to keep the head float on the water) within the last four minutes was recorded. Each group of mice was operated in parallel.
as §2, with “forced swimming” for “tail suspension test”

[8] = tested on: rats; experiment: Tail suspension test in rat model, compound C-11 versus fluoxetine, Example 41; assay type: in vivo
Experimental: On the day of the behavioral test, animals were dosed twice and administered orally 4 h and 1 h before the behavioral test. During the experiment, the tail of the rat was hung on a tail suspension test stand about 15 cm away from the ground with a tape or a clip at about 1 cm away from the tail end. […] The experimental time for each group was 6 minutes.

[9] = Acta Pharmacologica Sinica 2014; 35 (9): 1188-1198; cited from earlier work
[10] = mice, oral 4 h and 1 h before the test, vs blank group
[11] = dose 3.46 mg/kg oral, vs vehicle group, FIG. 3
[12] = rats, oral 4 h and 1 h before the test, dose not given

Compound | effect on cumulative immobility time of mice in the forced swimming test (in words) [1, 10] | effective dose compared with fluoxetine ([1]; mouse forced swimming test) | duration of oral administration that effectively alleviates depressive symptoms [2] | toxicity observed [3] | effect on cumulative immobility time of the mouse in tail suspension test (in words) [4, 10] | effective dose compared with fluoxetine ([4]; mouse tail suspension test) | effect on immobility time of mouse in tail suspension test compared with the blank group (in words) [5] | effect on immobility time of rats in forced swimming test ([6]; dose 1.73 mg/kg oral, vs vehicle group, FIG. 3) | effect on immobility time of rats in forced swimming test [6, 11] | effect on wall climbing behavior / wall climbing time of rats in forced swimming test [6, 11] | effective dose compared with fluoxetine ([6]; rat forced swimming test, FIG. 3) | effect on cumulative immobility time of rats in the forced swimming test (in words) [6, 12] | effect on immobility time of mice in forced swimming test compared with the blank group (in words) [7] | effect on cumulative immobility time of rats in tail suspension test ([8]; dose 3.46 mg/kg oral, vs vehicle group, FIG. 4) | effective dose compared with fluoxetine ([8]; rat tail suspension test, FIG. 4) | effect on immobility time of rats in tail suspension test (in words) [8, 12] | toxicity [9]
C[C@H]1CC[C@@]2(OC1)O[C@H]1C[C@H]3[C@@H]4CC[C@@H]5C[C@H](NC(=O)NC6CCCCC6)CC[C@]5(C)[C@H]4CC[C@]3(C)[C@H]1[C@@H]2C [compound C-11] | significantly reduced the cumulative immobility time | only half of that of fluoxetine | 1-2 weeks | No significant toxicity was observed | significantly reduced the cumulative immobility time | only half of that of fluoxetine | extremely significant antidepressant activity | significantly reduce the immobility time | significantly reduce the immobility time | significantly increases the wall climbing time | significantly lower than that of the positive drug fluoxetine | significantly reduced the cumulative immobility time | extremely significant antidepressant activity | significantly reduce the cumulative immobility time | significantly lower than that of the positive drug fluoxetine | significantly reduced the immobility time | 
C[C@H]1CC[C@@]2(OC1)O[C@H]1C[C@H]3C4CC[C@@H]5C[C@@H](O[C@@H]6OC(CO)[C@H](O)[C@H](O)C6O[C@@H]6OC(CO)[C@@H](O)[C@H](O)C6O)CC[C@]5(C)C4CC[C@]3(C)C1[C@@H]2C (stereo partly shown) [timosaponin A3, reference compound] |  |  |  |  |  |  | significant antidepressant activity |  |  |  |  |  | could not significantly reduce the immobility time |  |  |  | significant toxicity
